Data on two molecules can be found in patent publication US20120288443A1, “LABELLED PYRROLYL-OXADIAZOLYL-DIAZABICYCLONONANE DERIVATIVES AND THEIR USE IN DIAGNOSTIC METHODS” (N[…]/S, priority 2009, published 2012).

Series [1] is described as follows: PET scan of brain uptake and distribution after i.v. bolus injection. Format: in vivo, Danish Landrace pigs. The settings on record: pig, 90 minutes HRRT PET scan. As for the experimental part:
Five Danish Landrace pigs were PET scanned in a high-resolution research tomography (HRRT) scanner after i.v. bolus injection of Compound 1 at t=0 mins. Points and connecting line indicate regional radioactive concentration normalized to injected dose per kg body weight, i.e. standardized uptake values (SUV).
(§1) Compound 1 was given as an intravenous bolus injection to a total of five Danish Landrace pigs, and the pigs were subsequently scanned for 90 minutes in a high resolution research tomography (HRRT) PET scanner. Hereafter, the pigs were re-scanned after pre-treatment with cold ligand, either Compound 1 (10 mg/kg, iv) or SSR180711 (1 mg/kg or 10 mg/kg, iv).
Pre-treatment with Compound 1 and SSR180711 lead to a decline in the distribution volumes (VT) of Compound 1 as determined with logan plot kinetic modelling.

In series [2] the target is T1, nicotinic α7 acetylcholine receptor (Sus scrofa, UniProt F1SNR6). Description: Distribution volumes (VT) of Compound 1 in pig brain by PET, baseline vs pre-treatment. Format: in vivo. Set-up: nicotinic α7 acetylcholine receptor in the pig brain; from tissue; host or cells: brain of living pigs (in vivo PET). The note with it: for change of distribution volume (VT) of Compound 1 tracer following pre-treatment: pig brain, Logan plot kinetic modelling, pre-treatment 10 mg/kg Compound 1 or 1 or 10 mg/kg SSR180711 i.v. Here is the method: The distribution volumes are determined in the pig brain at baseline, or following pre-treatment with either Compound 1 or SSR180711.
T1 sequence (F1SNR6 20-499): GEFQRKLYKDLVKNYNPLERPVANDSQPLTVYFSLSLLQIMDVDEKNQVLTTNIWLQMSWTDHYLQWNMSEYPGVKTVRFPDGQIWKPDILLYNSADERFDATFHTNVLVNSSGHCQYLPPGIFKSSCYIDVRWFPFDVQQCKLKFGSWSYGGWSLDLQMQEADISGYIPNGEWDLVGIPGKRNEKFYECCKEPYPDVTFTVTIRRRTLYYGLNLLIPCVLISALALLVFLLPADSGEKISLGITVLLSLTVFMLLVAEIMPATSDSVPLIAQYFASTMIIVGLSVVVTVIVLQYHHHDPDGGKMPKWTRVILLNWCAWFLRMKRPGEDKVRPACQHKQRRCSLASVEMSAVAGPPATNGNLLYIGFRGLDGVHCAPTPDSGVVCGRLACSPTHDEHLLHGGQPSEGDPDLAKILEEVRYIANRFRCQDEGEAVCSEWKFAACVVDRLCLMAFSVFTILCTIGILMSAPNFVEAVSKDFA
Five pigs were PET scanned at baseline with Compound 1 in the HRRT scanner. Subsequently, the pigs were administered either 10 mg/kg Compound 1 or SSR180711 (1 mg/kg or 10 mg/kg, i.v.), and 30 minutes or 4 hours later, the pigs were scanned a second time using the same PET protocol.
VT is a measure of concentrations of Compound 1 in a given region relative to the plasma concentration. VT was calculated by kinetic modelling using Logan plot linearization. All kinetic modelling was done in PMOD version 3.0 (PMOD technologies, Inc.).

Series [3] concerns the target T1, nicotinic α7 acetylcholine receptor. Description: Receptor occupancy by PET (occupancy plotting of logan plot VT) after pre-treatment with cold ligand. Format: in vivo, Danish Landrace pigs. Details: nicotinic α7 acetylcholine receptor in the pig brain; from tissue; host or cells: brain of living Danish Landrace pigs (in vivo PET). The settings on record: for occupancy of nicotinic α7 acetylcholine receptors: pre-treatment 10 mg/kg iv Compound 1 (cold ligand). As for the experimental part:
as §1

For “2-(1,4-Diazabicyclo[3.2.2]nonan-4-yl)-5-(1-[^11C]methylpyrrol-2-yl)-1,3,4-oxadiazole [Compound 1]”, the “brain entry and regional distribution” value in series [1] was “entered into the pig brain, and the distribution was mainly found in the cerebral cortex and the thalamus”. Moreover, in series [2] (concluded from VT decrease after pre-treatment), the “binding to nicotinic α7 acetylcholine receptor in the pig brain” value is “binds specifically and selectively”. In series [2], the “change of distribution volume (VT) of Compound 1 tracer following pre-treatment” value is on record as “decreased”. The “occupancy of nicotinic α7 acetylcholine receptors” value in series [3] (inter-scan interval 4 hours) was 43%; in series [3] (second scan 30 minutes after pre-treatment) it was 81%.
As to `O=C(Oc1ccc(Br)cc1)N1CCN2CCC1CC2` [SSR180711, 1,4-Diazabicyclo[3.2.2]nonane-4-carboxylic acid, 4-bromophenyl ester], in series [2], the “change of distribution volume (VT) of Compound 1 tracer following pre-treatment” value is listed as “decreased”. The receptor occupancy at 1 mg/kg in series [3] (pig, iv, pre-treatment 1 mg/kg iv SSR180711, tracer Compound 1, read-out: occupancy of nicotinic α7 acetylcholine receptor in the pig brain) was found to be 52%. Besides, the receptor occupancy at 10 mg/kg in series [3] (pig, iv, pre-treatment 10 mg/kg iv SSR180711, tracer Compound 1, two values 'respectively', read-out: occupancy of nicotinic α7 acetylcholine receptor in the pig brain) was 70%. Further, the “occupancy of nicotinic α7 acetylcholine receptor in the pig brain” value in series [3] (pre-treatment 10 mg/kg iv SSR180711, tracer Compound 1, two values 'respectively') was 59%.
